Test results: ChEMBL document CHEMBL5724914, “Linking interpersonal differences in gut microbiota composition and drug biotransformation activity” (2024)

What was measured:
[1] = (§1) The drug is tested on Z-030 corresponding to mouse gut metagenome with ENA study accession number: PRJEB37062 and ENA sample accession number: ERS12561829 for biotransformation under anaerobic condition. The drug concentrations were measured over 9 timepoints collected between 0 and 24 hours of incubation by liquid-chromatography-coupled mass spectrometry (LC–MS); settings: 2 µM
[2] = as §1, with “Z-029” for “Z-030”, “rat” for “mouse”, “ERS12561828” for “ERS12561829”; settings: 2 µM
[3] = as §1, with “Z-028” for “Z-030”, “ERS12561827” for “ERS12561829”; settings: 2 µM
[4] = as §1, with “Z-027” for “Z-030”, “to” for “to mouse gut”, “ERS12561826” for “ERS12561829”; settings: 2 µM
[5] = as §1, with “Z-026” for “Z-030”, “to” for “to mouse gut”, “ERS12561825” for “ERS12561829”; settings: 2 µM
[6] = as §1, with “Z-025” for “Z-030”, “rabbit” for “mouse”, “ERS12561824” for “ERS12561829”; settings: 2 µM
[7] = as §1, with “Z-024” for “Z-030”, “pig” for “mouse”, “ERS12561823” for “ERS12561829”; settings: 2 µM
[8] = as §1, with “Z-023” for “Z-030”, “to” for “to mouse gut”, “ERS12561822” for “ERS12561829”; settings: 2 µM
[9] = as §1, with “Z-022” for “Z-030”, “ERS12561821” for “ERS12561829”; settings: 2 µM
[10] = as §1, with “Z-021” for “Z-030”, “to” for “to mouse gut”, “ERS12561820” for “ERS12561829”; settings: 2 µM
[11] = as §1, with “Z-020” for “Z-030”, “rabbit” for “mouse”, “ERS12561819” for “ERS12561829”; settings: 2 µM
[12] = as §1, with “Z-019” for “Z-030”, “rat” for “mouse”, “ERS12561818” for “ERS12561829”; settings: 2 µM
[13] = as §1, with “Z-018” for “Z-030”, “pig” for “mouse”, “ERS12561817” for “ERS12561829”; settings: 2 µM
[14] = as §1, with “Z-017” for “Z-030”, “ERS12561816” for “ERS12561829”; settings: 2 µM
[15] = as §1, with “Z-016” for “Z-030”, “ERS12561815” for “ERS12561829”; settings: 2 µM
[16] = as §1, with “Z-014” for “Z-030”, “rat” for “mouse”, “ERS12561814” for “ERS12561829”; settings: 2 µM
[17] = as §1, with “Z-013” for “Z-030”, “rabbit” for “mouse”, “ERS12561813” for “ERS12561829”; settings: 2 µM
[18] = as §1, with “Z-012” for “Z-030”, “to” for “to mouse gut”, “ERS12561812” for “ERS12561829”; settings: 2 µM
[19] = as §1, with “Z-011” for “Z-030”, “ERS12561811” for “ERS12561829”; settings: 2 µM
[20] = as §1, with “Z-010” for “Z-030”, “to” for “to mouse gut”, “ERS12561810” for “ERS12561829”; settings: 2 µM
[21] = as §1, with “Z-009” for “Z-030”, “pig” for “mouse”, “ERS12561809” for “ERS12561829”; settings: 2 µM
[22] = as §1, with “Z-008” for “Z-030”, “to” for “to mouse gut”, “ERS12561808” for “ERS12561829”; settings: 2 µM
[23] = as §1, with “Z-007” for “Z-030”, “rat” for “mouse”, “ERS12561807” for “ERS12561829”; settings: 2 µM
[24] = as §1, with “Z-006” for “Z-030”, “ERS12561806” for “ERS12561829”; settings: 2 µM
[25] = as §1, with “Z-005” for “Z-030”, “to” for “to mouse gut”, “ERS12561805” for “ERS12561829”; settings: 2 µM
[26] = as §1, with “Z-004” for “Z-030”, “to” for “to mouse gut”, “ERS12561804” for “ERS12561829”; settings: 2 µM
[27] = as §1, with “Z-003” for “Z-030”, “pig” for “mouse”, “ERS12561803” for “ERS12561829”; settings: 2 µM
[28] = as §1, with “Z-002” for “Z-030”, “rabbit” for “mouse”, “ERS12561802” for “ERS12561829”; settings: 2 µM
[29] = as §1, with “Z-001” for “Z-030”, “ERS12561801” for “ERS12561829”; settings: 2 µM
[30] = as §1, with “WLS-220” for “Z-030”, “human” for “mouse”, “ERS12561769” for “ERS12561829”; settings: 2 µM
[31] = human gut metagenome, 24 h, 2 µM
[32] = human gut metagenome, 24 h, 2 µM; remark: listed apart in the source
[33] = human gut metagenome, 24 h, 2 µM; remark: listed apart in the source
[34] = human gut metagenome, 24 h, 2 µM; remark: listed apart in the source
[35] = human gut metagenome, 24 h, 2 µM; remark: listed apart in the source
[36] = human gut metagenome, 24 h, 2 µM; remark: listed apart in the source
Note: call rule not given here.

Bacterial Biotransformation [1]: Compound metabolized | Bacterial Biotransformation [2]: Compound metabolized | Bacterial Biotransformation [3]: Compound metabolized | Bacterial Biotransformation [4]: Compound metabolized | Bacterial Biotransformation [5]: Compound metabolized | Bacterial Biotransformation [6]: Compound metabolized | Bacterial Biotransformation [7]: Compound metabolized | Bacterial Biotransformation [8]: Compound metabolized | Bacterial Biotransformation [9]: Compound metabolized | Bacterial Biotransformation [10]: Compound metabolized | Bacterial Biotransformation [11]: Compound metabolized | Bacterial Biotransformation [12]: Compound NOT metabolized | Bacterial Biotransformation [13]: Compound metabolized | Bacterial Biotransformation [14]: Compound metabolized | Bacterial Biotransformation [15]: Compound metabolized | Bacterial Biotransformation [16]: Compound metabolized | Bacterial Biotransformation [17]: Compound metabolized | Bacterial Biotransformation [18]: Compound metabolized | Bacterial Biotransformation [19]: Compound metabolized | Bacterial Biotransformation [20]: Compound metabolized | Bacterial Biotransformation [21]: Compound metabolized | Bacterial Biotransformation [22]: Compound metabolized | Bacterial Biotransformation [23]: Compound metabolized | Bacterial Biotransformation [24]: Compound metabolized | Bacterial Biotransformation [25]: Compound metabolized | Bacterial Biotransformation [26]: Compound metabolized | Bacterial Biotransformation [27]: Compound metabolized | Bacterial Biotransformation [28]: Compound metabolized | Bacterial Biotransformation [29]: Compound metabolized | Bacterial Biotransformation [30]: Compound NOT metabolized | Bacterial Biotransformation [31]: Compound metabolized | Bacterial Biotransformation [32]: Compound NOT metabolized | Bacterial Biotransformation [33]: Compound metabolized | Bacterial Biotransformation [34]: Compound metabolized | Bacterial Biotransformation [35]: Compound metabolized | Bacterial Biotransformation [36]: Compound metabolized
SMILES: CCN(CC)C(=O)/C(C#N)=C/c1cc(O)c(O)c([N+](=O)[O-])c1 [ENTACAPONE]
